According to PubChem BioAssay (NCI):
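48-hour exposure; five concentrations; linearly interpolated endpoints. GI50 is the concentration that inhibits growth by half. TGI: concentration producing complete growth inhibition.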

Columns and labels:
Assay in all cases: NCI-60 cell line screen, 48 h
TK-10 renal = test system: TK-10 renal
MALME-3M melanoma = test system: MALME-3M melanoma
SR leukemia = test system: SR leukemia
OVCAR-4 ovarian = test system: OVCAR-4 ovarian
OVCAR-3 ovarian = test system: OVCAR-3 ovarian
HCT-15 colon = test system: HCT-15 colon
NCI/ADR-RES ovarian = test system: NCI/ADR-RES ovarian
NCI-H23 lung = test system: NCI-H23 lung
BT-549 breast = test system: BT-549 breast
NCI-H460 lung = test system: NCI-H460 lung
LOX IMVI melanoma = test system: LOX IMVI melanoma
KM12 colon = test system: KM12 colon
PC-3 prostate = test system: PC-3 prostate
HOP-92 NSCLC = test system: HOP-92 NSCLC
ACHN renal = test system: ACHN renal
RXF 393 renal = test system: RXF 393 renal
MDA-MB-231 breast = test system: MDA-MB-231 breast
K-562 leukemia = test system: K-562 leukemia
RPMI-8226 leukemia = test system: RPMI-8226 leukemia
HS 578T breast = test system: HS 578T breast
OVCAR-5 ovarian = test system: OVCAR-5 ovarian
UACC-257 melanoma = test system: UACC-257 melanoma
HL-60(TB) leukemia = test system: HL-60(TB) leukemia
SK-MEL-2 melanoma = test system: SK-MEL-2 melanoma
SK-MEL-5 melanoma = test system: SK-MEL-5 melanoma
OVCAR-8 ovarian = test system: OVCAR-8 ovarian
NCI-H522 lung = test system: NCI-H522 lung
COLO 205 colon = test system: COLO 205 colon
DU-145 prostate = test system: DU-145 prostate
SK-MEL-28 melanoma = test system: SK-MEL-28 melanoma
SF-539 CNS = test system: SF-539 CNS
U251 CNS = test system: U251 CNS
SW-620 colon = test system: SW-620 colon
NCI-H226 lung = test system: NCI-H226 lung
CCRF-CEM leukemia = test system: CCRF-CEM leukemia
MDA-MB-435 = test system: MDA-MB-435
T-47D breast = test system: T-47D breast
MCF7 breast = test system: MCF7 breast
786-0 renal = test system: 786-0 renal
A498 renal = test system: A498 renal
HCT-116 colon = test system: HCT-116 colon
SK-OV-3 ovarian = test system: SK-OV-3 ovarian
SNB-19 CNS = test system: SNB-19 CNS
UO-31 renal = test system: UO-31 renal
HCC-2998 colon = test system: HCC-2998 colon
HOP-62 NSCLC = test system: HOP-62 NSCLC
M14 melanoma = test system: M14 melanoma
MOLT-4 leukemia = test system: MOLT-4 leukemia
EKVX NSCLC = test system: EKVX NSCLC
IGROV1 ovarian = test system: IGROV1 ovarian
SN12C renal = test system: SN12C renal
UACC-62 melanoma = test system: UACC-62 melanoma
A549 NSCLC = test system: A549 NSCLC
CAKI-1 renal = test system: CAKI-1 renal
SF-268 CNS = test system: SF-268 CNS
SNB-75 CNS = test system: SNB-75 CNS
HT29 colon = test system: HT29 colon
SF-295 CNS = test system: SF-295 CNS

## NC(=O)c1cccc(N2Cc3ccccc3OC3=C2C(=O)c2c(O)ccc(O)c2C3=O)c1
TK-10 renal
  GI50: 0.221 µM
  TGI: 0.682 µM
MALME-3M melanoma
  GI50: 0.194 µM
  TGI: 0.614 µM
SR leukemia
  GI50: 0.088 µM
  TGI: 0.912 µM
OVCAR-4 ovarian
  GI50: 0.312 µM
  TGI: 1.13 µM
OVCAR-3 ovarian
  GI50: 0.233 µM
  TGI: 0.646 µM
HCT-15 colon
  GI50: 0.224 µM
  TGI: 0.724 µM
NCI/ADR-RES ovarian
  GI50: 2.13 µM
  TGI: 35.6 µM
NCI-H23 lung
  GI50: 1.59 µM
  TGI: 4.5 µM
BT-549 breast
  GI50: 0.944 µM
  TGI: 2.41 µM
NCI-H460 lung
  GI50: 2.34 µM
  TGI: 6.12 µM
LOX IMVI melanoma
  GI50: 0.284 µM
  TGI: 0.897 µM
KM12 colon
  GI50: 1.88 µM
  TGI: 4.88 µM
PC-3 prostate
  GI50: 1.28 µM
  TGI: 4.56 µM
HOP-92 NSCLC
  GI50: 0.27 µM
  TGI: 0.752 µM
ACHN renal
  GI50: 0.165 µM
  TGI: 0.485 µM
RXF 393 renal
  GI50: 0.189 µM
  TGI: 0.433 µM
MDA-MB-231 breast
  GI50: 0.342 µM
  TGI: 1.04 µM
K-562 leukemia
  GI50: 0.164 µM
  TGI: 1.33 µM
RPMI-8226 leukemia
  GI50: 0.319 µM
  TGI: 1.36 µM
HS 578T breast
  GI50: 3.28 µM
  TGI: 30.8 µM
OVCAR-5 ovarian
  GI50: 1.28 µM
  TGI: 2.87 µM
UACC-257 melanoma
  GI50: 0.531 µM
  TGI: 1.73 µM
HL-60(TB) leukemia
  GI50: 0.188 µM
  TGI: 0.496 µM
SK-MEL-2 melanoma
  GI50: 1.96 µM
  TGI: 4.79 µM
SK-MEL-5 melanoma
  GI50: 1.76 µM
  TGI: 3.84 µM
OVCAR-8 ovarian
  GI50: 0.304 µM
  TGI: 1.5 µM
NCI-H522 lung
  GI50: 0.0682 µM
  TGI: 0.256 µM
COLO 205 colon
  GI50: 0.112 µM
  TGI: 0.298 µM
DU-145 prostate
  GI50: 0.517 µM
  TGI: 1.64 µM
SK-MEL-28 melanoma
  GI50: 0.433 µM
  TGI: 1.5 µM
SF-539 CNS
  GI50: 1.25 µM
  TGI: 2.63 µM
U251 CNS
  GI50: 1.51 µM
  TGI: 4.59 µM
SW-620 colon
  GI50: 0.275 µM
  TGI: 1.03 µM
NCI-H226 lung
  GI50: 2.04 µM
  TGI: 5.95 µM
CCRF-CEM leukemia
  GI50: 0.12 µM
  TGI: 0.595 µM
MDA-MB-435
  GI50: 1.08 µM
  TGI: 2.86 µM
T-47D breast
  GI50: 0.213 µM
  TGI: 0.746 µM
MCF7 breast
  GI50: 0.327 µM
  TGI: 1.73 µM
786-0 renal
  GI50: 0.276 µM
  TGI: 0.986 µM
A498 renal
  GI50: 2.64 µM
  TGI: 7.21 µM
HCT-116 colon
  GI50: 0.267 µM
  TGI: 0.963 µM
SK-OV-3 ovarian
  GI50: 3.51 µM
  TGI: 13 µM
SNB-19 CNS
  GI50: 3 µM
  TGI: 10.8 µM
UO-31 renal
  GI50: 0.138 µM
  TGI: 0.344 µM
HCC-2998 colon
  GI50: 1.96 µM
  TGI: 3.64 µM
HOP-62 NSCLC
  GI50: 2.14 µM
  TGI: 5.96 µM
M14 melanoma
  GI50: 0.554 µM
  TGI: 1.97 µM
MOLT-4 leukemia
  GI50: 0.235 µM
  TGI: 1.09 µM
EKVX NSCLC
  GI50: 1.26 µM
  TGI: 4.09 µM
IGROV1 ovarian
  GI50: 1.19 µM
  TGI: 3.01 µM
SN12C renal
  GI50: 1.44 µM
  TGI: 3.4 µM
UACC-62 melanoma
  GI50: 0.319 µM
  TGI: 1.14 µM
A549 NSCLC
  GI50: 2.83 µM
  TGI: 10.1 µM
CAKI-1 renal
  GI50: 0.301 µM
  TGI: 1.13 µM
SF-268 CNS
  GI50: 1.34 µM
  TGI: 3.91 µM
SNB-75 CNS
  GI50: 1.49 µM
  TGI: 6.67 µM
HT29 colon
  GI50: 0.302 µM
  TGI: 1.15 µM
SF-295 CNS
  GI50: 2.21 µM
  TGI: 5.99 µM
